In ChEMBL document CHEMBL1201862, “PubChem BioAssay data set” (2004):
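Step 1: Grow cells in 96-well plates. Step 2: Expose to compound for 48 hours at 5 concentrations. Step 3: Interpolate endpoints linearly; if unreached, use highest concentration. GI50 is the concentration that inhibits growth by half.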 Active and inactive are the calls of the source. Cut-off read from the data, not from the text of the source: active = GI50 up to about 1.1 µM and inactive = higher.

Experiments:
Assay in all cases: growth of human tumour cells (NCI), 48 h
COLO 205 = tested on: COLO 205
MDA-N = tested on: MDA-N
Hs-578T = tested on: Hs-578T
SF-539 = tested on: SF-539
KM12 = tested on: KM12
BT-549 = tested on: BT-549
MOLT-4 = tested on: MOLT-4
SK-MEL-28 = tested on: SK-MEL-28
CCRF-CEM = tested on: CCRF-CEM
UACC-257 = tested on: UACC-257
PC-3 = tested on: PC-3
NCI-H460 = tested on: NCI-H460
SN12C = tested on: SN12C
SR = tested on: SR
HT-29 = tested on: HT-29
T47D = tested on: T47D
IGROV-1 = tested on: IGROV-1
CAKI-1 = tested on: CAKI-1
SK-MEL-2 = tested on: SK-MEL-2
A549 = tested on: A549

Structure (SMILES)	GI50 (COLO 205)	GI50 (MDA-N)	GI50 (Hs-578T)	GI50 (SF-539)	GI50 (KM12)	GI50 (BT-549)	GI50 (MOLT-4)	GI50 (SK-MEL-28)	GI50 (CCRF-CEM)	GI50 (UACC-257)	GI50 (PC-3)	GI50 (NCI-H460)	GI50 (SN12C)	GI50 (SR)	GI50 (HT-29)	GI50 (T47D)	GI50 (IGROV-1)	GI50 (CAKI-1)	GI50 (SK-MEL-2)	GI50 (A549)
CC1=C(O)C(O)=C(C2=C(O)C(O)=C(C)C(=O)C2=O)C(=O)C1=O	40.7 µM (inactive)	40.9 µM (inactive)	36.7 µM (inactive)	33 µM (inactive)	38.5 µM (inactive)	31 µM (inactive)	98.2 µM (inactive)	29.2 µM (inactive)	60 µM (inactive)	35.6 µM (inactive)	60.8 µM (inactive)	40.6 µM (inactive)	45 µM (inactive)	> 100 µM (inactive)	59.3 µM (inactive)	37.5 µM (inactive)	43.4 µM (inactive)	40.7 µM (inactive)	–	–
N=C1C(O)C2(I)c3ccccc3N3C(=N)C(O)C4c5ccccc5N1C4C32 (configuration not stated)	26.2 µM (inactive)	42.7 µM (inactive)	61.8 µM (inactive)	–	15.1 µM (inactive)	> 100 µM (inactive)	27.5 µM (inactive)	90.6 µM (inactive)	2.3 µM (inactive)	> 100 µM (inactive)	41.7 µM (inactive)	37.7 µM (inactive)	54.3 µM (inactive)	34.3 µM (inactive)	95.1 µM (inactive)	> 100 µM (inactive)	19.9 µM (inactive)	93.5 µM (inactive)	> 100 µM (inactive)	51.8 µM (inactive)
O=C(CC(=O)N(C(=O)/C=C\c1ccccc1)c1ccc(Cl)cc1)N1N=C(c2ccccc2)C(/N=N/c2cccc([N+](=O)[O-])c2)C1=O (configuration not stated)	3.45 µM (inactive)	7.05 µM (inactive)	18.4 µM (inactive)	6.07 µM (inactive)	1.76 µM (inactive)	12.3 µM (inactive)	2.56 µM (inactive)	11.5 µM (inactive)	1.36 µM (inactive)	–	3.23 µM (inactive)	3.63 µM (inactive)	1.29 µM (inactive)	1.57 µM (inactive)	2.42 µM (inactive)	4.2 µM (inactive)	9.06 µM (inactive)	10.7 µM (inactive)	–	5.05 µM (inactive)
Cc1cc2c(c(=O)o1)C1=S(SC(c3ccccc3)=C1)S2 (configuration not stated)	> 100 µM (inactive)	> 100 µM (inactive)	41.2 µM (inactive)	24.3 µM (inactive)	84.3 µM (inactive)	> 100 µM (inactive)	> 100 µM (inactive)	> 100 µM (inactive)	> 100 µM (inactive)	> 100 µM (inactive)	24.4 µM (inactive)	37.2 µM (inactive)	67.3 µM (inactive)	18.3 µM (inactive)	38.9 µM (inactive)	36.9 µM (inactive)	55.5 µM (inactive)	–	66.4 µM (inactive)	33.7 µM (inactive)
COC(=O)C12OCC34C(CC5C(C)=CC(=O)C(O)C5(C)C3C(O)C1O)OC(=O)C(OC(=O)CC(C)C)C24 (configuration not stated)	0.00237 µM (active)	0.00142 µM (active)	0.000164 µM (active)	0.00064 µM (active)	0.00166 µM (active)	0.000463 µM (active)	–	0.00134 µM (active)	0.000486 µM (active)	0.00284 µM (active)	0.000871 µM (active)	0.00046 µM (active)	0.00366 µM (active)	0.000327 µM (active)	0.000973 µM (active)	0.00146 µM (active)	0.000564 µM (active)	0.005 µM (active)	0.00281 µM (active)	0.0013 µM (active)
COCOc1cc(OC)ccc1C=O	24.9 µM (inactive)	5.58 µM (inactive)	14.8 µM (inactive)	21.5 µM (inactive)	34 µM (inactive)	58.1 µM (inactive)	37.2 µM (inactive)	> 100 µM (inactive)	20.7 µM (inactive)	28.6 µM (inactive)	21.8 µM (inactive)	38.5 µM (inactive)	34.5 µM (inactive)	11.3 µM (inactive)	25.6 µM (inactive)	44.7 µM (inactive)	33.1 µM (inactive)	86.9 µM (inactive)	34 µM (inactive)	> 100 µM (inactive)
COC(=O)Cc1c([C@H]2[C@H](CC(=O)OC)c3ccccc3N2C(C)=O)[nH]c2ccccc12	67.1 µM (inactive)	> 100 µM (inactive)	> 100 µM (inactive)	> 100 µM (inactive)	> 100 µM (inactive)	67.6 µM (inactive)	54.8 µM (inactive)	> 100 µM (inactive)	67.5 µM (inactive)	> 100 µM (inactive)	80 µM (inactive)	96.8 µM (inactive)	> 100 µM (inactive)	–	> 100 µM (inactive)	> 100 µM (inactive)	34.4 µM (inactive)	> 100 µM (inactive)	> 100 µM (inactive)	97.7 µM (inactive)
CC(=O)NC1(C)C(C)C2CC1C(C)C2(C)C (configuration not stated)	> 100 µM (inactive)	> 100 µM (inactive)	> 100 µM (inactive)	> 100 µM (inactive)	> 100 µM (inactive)	> 100 µM (inactive)	> 100 µM (inactive)	> 100 µM (inactive)	> 100 µM (inactive)	> 100 µM (inactive)	> 100 µM (inactive)	> 100 µM (inactive)	> 100 µM (inactive)	> 100 µM (inactive)	> 100 µM (inactive)	> 100 µM (inactive)	> 100 µM (inactive)	> 100 µM (inactive)	–	> 100 µM (inactive)
CCCCOc1ccc(S(=O)(=O)N/C(N)=N/c2ccc(Cl)cc2)cc1	25.2 µM (inactive)	16.2 µM (inactive)	20.1 µM (inactive)	20.9 µM (inactive)	17.9 µM (inactive)	17.8 µM (inactive)	11.2 µM (inactive)	16.7 µM (inactive)	–	14.1 µM (inactive)	17.3 µM (inactive)	17.1 µM (inactive)	14.9 µM (inactive)	3.27 µM (inactive)	18.3 µM (inactive)	10.7 µM (inactive)	14.7 µM (inactive)	–	17.1 µM (inactive)	19.5 µM (inactive)
CC#CC#C/C=C1/O[C@]2(CCC(OC(C)=O)CO2)[C@@H]2O[C@H]12 (some centres not stated)	15.1 µM (inactive)	28.2 µM (inactive)	40.3 µM (inactive)	–	19.9 µM (inactive)	21.1 µM (inactive)	17 µM (inactive)	–	14.7 µM (inactive)	21.6 µM (inactive)	22.1 µM (inactive)	18.1 µM (inactive)	20.6 µM (inactive)	25.9 µM (inactive)	28.9 µM (inactive)	15.3 µM (inactive)	50.7 µM (inactive)	25.5 µM (inactive)	16.8 µM (inactive)	29.6 µM (inactive)
COC1CC(OC2OC(CO)C(O)C(O)C2O)/C(=C\C#N)C(O)C1OC (configuration not stated)	> 100 µM (inactive)	> 100 µM (inactive)	> 100 µM (inactive)	> 100 µM (inactive)	> 100 µM (inactive)	> 100 µM (inactive)	> 100 µM (inactive)	> 100 µM (inactive)	> 100 µM (inactive)	> 100 µM (inactive)	> 100 µM (inactive)	> 100 µM (inactive)	> 100 µM (inactive)	> 100 µM (inactive)	> 100 µM (inactive)	> 100 µM (inactive)	> 100 µM (inactive)	> 100 µM (inactive)	> 100 µM (inactive)	> 100 µM (inactive)
CC(=O)N1CCc2c([nH]c3ccc(Br)cc23)C1c1ccccc1 (configuration not stated)	> 10 µM (inactive)	2.61 µM (inactive)	> 10 µM (inactive)	> 6.81 µM (inactive)	> 3.41 µM (inactive)	7.03 µM (inactive)	0.697 µM (active)	> 10 µM (inactive)	1.47 µM (inactive)	> 10 µM (inactive)	1.12 µM (active)	0.522 µM (active)	–	0.733 µM (active)	5.37 µM (inactive)	> 10 µM (inactive)	> 7.33 µM (inactive)	> 9.53 µM (inactive)	> 10 µM (inactive)	0.912 µM (active)
N=C(CSS(=O)(=O)O)NC1CC2CCC1C2 (configuration not stated)	> 100 µM (inactive)	> 100 µM (inactive)	> 100 µM (inactive)	> 100 µM (inactive)	> 100 µM (inactive)	> 100 µM (inactive)	78.2 µM (inactive)	> 100 µM (inactive)	> 100 µM (inactive)	> 100 µM (inactive)	> 100 µM (inactive)	43.1 µM (inactive)	> 100 µM (inactive)	> 100 µM (inactive)	–	71.8 µM (inactive)	> 100 µM (inactive)	> 100 µM (inactive)	> 100 µM (inactive)	> 100 µM (inactive)
N#C[C@H](c1nc2ccccc2[nH]1)c1nc2ccccc2nc1Cl	12.8 µM (inactive)	16.7 µM (inactive)	2.05 µM (inactive)	> 100 µM (inactive)	4.35 µM (inactive)	> 28.2 µM (inactive)	4.04 µM (inactive)	20.2 µM (inactive)	2.64 µM (inactive)	> 38.7 µM (inactive)	> 25.9 µM (inactive)	> 25.1 µM (inactive)	12.7 µM (inactive)	3.09 µM (inactive)	5.55 µM (inactive)	3.96 µM (inactive)	11.2 µM (inactive)	4.68 µM (inactive)	–	> 54.5 µM (inactive)
COc1ccc2c(c1OC)CN1CCc3cc4c(cc3C1C2)OCO4 (configuration not stated) [TETRAHYDROBERBERINE]	> 100 µM (inactive)	> 100 µM (inactive)	> 100 µM (inactive)	> 100 µM (inactive)	> 100 µM (inactive)	> 100 µM (inactive)	> 100 µM (inactive)	> 100 µM (inactive)	–	> 100 µM (inactive)	> 100 µM (inactive)	61 µM (inactive)	> 100 µM (inactive)	> 100 µM (inactive)	–	> 100 µM (inactive)	> 100 µM (inactive)	> 100 µM (inactive)	> 100 µM (inactive)	> 100 µM (inactive)
